Activity calls are given as the source filed them. The calls are words filed in the database; no cut-off is given here.
Columns and labels:
Mus musculus = species: Mus musculus; test: Inhibition of calcium (Ca2+) oscillations in Swiss-Webster mouse neocortical neurons at 10 uM by Fluo-3 dye based fluorimetric assay; assay type: functional
RAW264.7 [1] = test: Antiinflammatory activity in mouse RAW264.7 cells assessed as inhibition of LPS-induced nitric oxide production incubated for 24 hrs by Griess method; assay type: functional, cell-based; details: RAW264.7, 24 h
NCI-H460 = test: Cytotoxicity against human H460 cells at =>10 ug/mL; assay type: cell-based
RAW264.7 [2] = test: Cytotoxicity against mouse RAW264.7 cells after 48 hrs by MTT assay; assay type: cell-based; details: raw264.7, 48 h

Row | SMILES | inhibition (Mus musculus) | IC50 (RAW264.7 [1]) [µM] | Activity (NCI-H460) | Activity (RAW264.7 [2])
1 | CCCCCCC/C=C(\C)[C@@H](O)[C@@H](C)C(=O)N1CCC[C@H]1C(=O)O | Active |  |  | 
2 | CCCCCCCCC(C)[C@H](OC(C)=O)[C@H](C)C(=O)N1CCC[C@H]1C(=O)O (some centres not stated) | Active |  |  | 
3 | CCCCCCCC[C@H](C)C(=O)N1CCC[C@H]1C(=O)O[C@@H](C(=O)O[C@@H](C)C(=O)O)[C@@H](C)CC | inactive |  |  | 
4 | CCCCCCC/C=C(\C)[C@@H](O)[C@@H](C)C(=O)N1CCC[C@H]1C(=O)OCC [ETHYL TUMONOATE A] | Active | 9.8 | Non-toxic | Non-toxic

— ChEMBL document CHEMBL1821549, “Phylogeny-guided isolation of ethyl tumonoate A from the marine cyanobacterium cf. Oscillatoria margaritifera” (J Nat Prod, 2011)
